System: LG0567-F671-PDC KRAS tumor spheroid viability
Test: Anticancer human tumor LG0567-F671-PDC patient-derived lung adenocarcinoma cell line growth inhibition [KRAS2]
Details: spheroids with HUVEC and MSC; for IC50: curve of first compound; for viability, T/C: stronger effect = lower value
Description: Multicellular complex tumor spheroid response to RAS pathway inhibitors in combination with a targeted agents in patient-derived cell lines with oncogenic KRAS variants from multiple cancer types
A high-throughput screen of multi-cell type tumor spheroids was designed to identify active combinations of targeted small molecules and KRAS pathway inhibitors. Complex spheroids include a stromal component modeled by human endothelial cells (HUVEC) and fibroblasts modeled by human mesenchymal stem cells (MSCs). The concentration ranges selected for each drug and investigational agent were based upon clinically achievable concentrations if the clinical Cmax of the agent was known.
Compounds. The drugs and investigational agents: BI-3406 (NSC825286), BAY-293 (NSC824723), batoprotafib (TNO155; NSC825523), sotorasib (AMG 510; NSC818433), MRTX1257 (NSC819558), elimusertib (BAY 1895344; NSC800525), molibresib (GSK525762; NSC774829), temuterkib (LY3214996; NSC803410), venetoclax (NSC766270), alisertib (NSC759677), olaparib (NSC753686), talazoparib (NSC767125), erdafitinib (NSC781556), ipatasertib (NSC767898), cabozantinib (NSC761068), nintedanib (NSC756659), abemaciclib (NSC768073), docetaxel (NSC628503), trametinib (NSC758246), and sapanisertib (NSC764658) were obtained from the National Cancer Institute (NCI) Developmental Therapeutics Program Chemical Repository. The FDA-approved anticancer drug set is available from the Developmental Therapeutics Program. […] The stock solutions were prepared in dimethyl sulfoxide (DMSO, Sigma-Aldrich, St. Louis, MO, cat. D2650) at 800-fold the tested concentration and stored at -70 degrees C prior to their use. All drugs and investigational agents were tested over a range starting from a high concentration at or near the clinical Cmax and decreasing in half-log increments. If the clinical Cmax for an agent had not been determined, the highest concentration tested was 10 microM.
Cell Culture. All cells were maintained in an incubator at 37 degrees C and 5% CO2 with 95% humidity. The PDC lines were cultured according to standard operating procedures established by the NCI PDMR (https://pdmr.cancer.gov/sops/default.htm). Briefly, all PDCs were thawed and cultured in Matrigel-coated flasks prepared with a working solution of 1X Ham's F-12 nutrient mix, without supplementation (Invitrogen, Waltham, MA, cat. 11765054), 100 U/mL penicillin-streptomycin (Invitrogen, cat. 15140122), and 2.5% Matrigel (Corning Inc., Corning, NY, cat. 354248) for the first three passages. All PDCs were cultured in complete DMEM/F-12 media containing advanced DMEM/F-12 (Invitrogen, cat. 12634028), 4.9% defined fetal bovine serum, heat inactivated (HyClone Laboratories Inc., Logan, UT, cat. SH30070.03HI), 389 ng/mL hydrocortisone (Sigma-Aldrich, cat. H4001), 9.7 ng/mL human EGF recombinant protein (Invitrogen, cat. PHG0313), 23.4 microg/mL adenine (Sigma-Aldrich, cat. A2786), 97.3 U/mL penicillin-streptomycin (Invitrogen, cat. 15140122), 1.9 mM L-glutamine (Invitrogen, cat. 25030081), and 9.7 microM Y-27632 dihydrochloride (Tocris Bioscience, Bristol, United Kingdom, cat. 1254). The PDCs were cultured in complete DMEM/F12 media without 9.7 microM Y-27632 dihydrochloride for at least two passages prior to the screen. The established cell line HOP-62 was cultured in RPMI 1640 medium, HEPES (Invitrogen, cat. 22400105) with 10% defined fetal bovine serum (HyClone Laboratories Inc., cat. SH30070.03) and 2 mM L-glutamine (Invitrogen, cat. 25030081). The pooled donor HUVEC were cultured in endothelial cell growth medium 2 (PromoCell, Heidelberg, Germany, cat. C-22011) and the hMSC were cultured in mesenchymal stem cell growth medium 2 (PromoCell, cat. C-28009). For all experiments, HUVEC and hMSC were used at passages </=5, while the malignant cell lines were used at passages </=15. […]

[1] = second compound 0.1 µM, first compound 0.0316 µM
[2] = second compound 0.1 µM, first compound 0.1 µM
[3] = second compound 0.1 µM, first compound 0.316 µM
[4] = second compound 0.1 µM, first compound 1 µM
[5] = second compound 0.1 µM, first compound 3.16 µM
[6] = second compound 0.1 µM, first compound 10 µM
[7] = second compound 0.316 µM, first compound 0.0316 µM
[8] = second compound 0.316 µM, first compound 0.1 µM
[9] = second compound 0.316 µM, first compound 0.316 µM
[10] = second compound 0.316 µM, first compound 1 µM
[11] = second compound 0.316 µM, first compound 3.16 µM
[12] = second compound 0.316 µM, first compound 10 µM
[13] = second compound 1 µM, first compound 0.0316 µM
[14] = second compound 1 µM, first compound 0.1 µM
[15] = second compound 1 µM, first compound 0.316 µM
[16] = second compound 1 µM, first compound 1 µM
[17] = second compound 1 µM, first compound 3.16 µM
[18] = second compound 1 µM, first compound 10 µM
[19] = second compound 3.16 µM, first compound 0.0316 µM
[20] = second compound 3.16 µM, first compound 0.1 µM
[21] = second compound 3.16 µM, first compound 0.316 µM
[22] = second compound 3.16 µM, first compound 1 µM
[23] = second compound 3.16 µM, first compound 3.16 µM
[24] = second compound 3.16 µM, first compound 10 µM
[25] = second compound 10 µM, first compound 0.0316 µM
[26] = second compound 10 µM, first compound 0.1 µM
[27] = second compound 10 µM, first compound 0.316 µM
[28] = second compound 10 µM, first compound 1 µM
[29] = second compound 10 µM, first compound 3.16 µM
[30] = second compound 10 µM, first compound 10 µM
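Also: drug exposure lasted seven days after spheroids formed for three days.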
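For viability, T/C in this document: 100% = DMSO vehicle control viability.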

## COC(=O)c1ccc2c(C(=Nc3ccc(N(C)C(=O)CN4CCN(C)CC4)cc3)c3ccccc3)c(O)[nH]c2c1 + C=CC(=O)N1CCN(c2nc(=O)n(-c3c(C)ccnc3C(C)C)c3nc(-c4c(O)cccc4F)c(F)cc23)C(C)C1
Second compound 0.1 µM
  IC50: < 31.6 nM
Second compound 0.316 µM
  IC50: < 31.6 nM
Second compound 1 µM
  IC50: < 31.6 nM
Second compound 3.16 µM
  IC50: < 31.6 nM
Second compound 10 µM
  IC50: < 31.6 nM
[1]
  viability, T/C: 23.1%
[2]
  viability, T/C: 22%
[3]
  viability, T/C: 25.9%
[4]
  viability, T/C: 28.3%
[5]
  viability, T/C: 30%
[6]
  viability, T/C: 33%
[7]
  viability, T/C: 20.8%
[8]
  viability, T/C: 23.3%
[9]
  viability, T/C: 20.1%
[10]
  viability, T/C: 23.2%
[11]
  viability, T/C: 29.7%
[12]
  viability, T/C: 27.9%
[13]
  viability, T/C: 21.7%
[14]
  viability, T/C: 22%
[15]
  viability, T/C: 21.6%
[16]
  viability, T/C: 32%
[17]
  viability, T/C: 26.6%
[18]
  viability, T/C: 30.1%
[19]
  viability, T/C: 18.8%
[20]
  viability, T/C: 18.8%
[21]
  viability, T/C: 19.6%
[22]
  viability, T/C: 22.6%
[23]
  viability, T/C: 28%
[24]
  viability, T/C: 30.1%
[25]
  viability, T/C: 26.3%
[26]
  viability, T/C: 24.4%
[27]
  viability, T/C: 22.2%
[28]
  viability, T/C: 24.6%
[29]
  viability, T/C: 27.9%
[30]
  viability, T/C: 1.41%

## Cn1nccc1Nc1nccc(-c2cc3c(s2)C(C)(C)N(CCN2CCOCC2)C3=O)n1 + CNCc1ccccc1-c1csc(C(C)Nc2nc(C)nc3cc(OC)c(OC)cc23)c1
Second compound 0.1 µM
  IC50: 581 nM
Second compound 0.316 µM
  IC50: 557 nM
Second compound 1 µM
  IC50: 340 nM
Second compound 3.16 µM
  IC50: 794 nM
Second compound 10 µM
  IC50: < 31.6 nM
[1]
  viability, T/C: 83.6%
[2]
  viability, T/C: 68.6%
[3]
  viability, T/C: 59.6%
[4]
  viability, T/C: 44.1%
[5]
  viability, T/C: 31.7%
[6]
  viability, T/C: 32%
[7]
  viability, T/C: 66.2%
[8]
  viability, T/C: 65.1%
[9]
  viability, T/C: 54.2%
[10]
  viability, T/C: 46%
[11]
  viability, T/C: 28.3%
[12]
  viability, T/C: 26.8%
[13]
  viability, T/C: 66.2%
[14]
  viability, T/C: 66.1%
[15]
  viability, T/C: 49.7%
[16]
  viability, T/C: 35.6%
[17]
  viability, T/C: 29.1%
[18]
  viability, T/C: 26.3%
[19]
  viability, T/C: 73.9%
[20]
  viability, T/C: 71.7%
[21]
  viability, T/C: 53.3%
[22]
  viability, T/C: 44.7%
[23]
  viability, T/C: 36.6%
[24]
  viability, T/C: 1.09%
[25]
  viability, T/C: 0.21%
[26]
  viability, T/C: 0.18%
[27]
  viability, T/C: 0.76%
[28]
  viability, T/C: 0.16%
[29]
  viability, T/C: 1.91%
[30]
  viability, T/C: 0.18%

## COC(=O)c1ccc2c(C(=Nc3ccc(N(C)C(=O)CN4CCN(C)CC4)cc3)c3ccccc3)c(O)[nH]c2c1 + COc1cc2nc(C)nc(NC(C)c3cc(N)cc(C(F)(F)F)c3)c2cc1OC1CCOC1
Second compound 0.1 µM
  IC50: > 10000 nM
Second compound 0.316 µM
  IC50: > 10000 nM
Second compound 1 µM
  IC50: > 10000 nM
Second compound 3.16 µM
  IC50: 4080 nM
Second compound 10 µM
  IC50: 1590 nM
[1]
  viability, T/C: 112%
[2]
  viability, T/C: 76.2%
[3]
  viability, T/C: 65.9%
[4]
  viability, T/C: 85.8%
[5]
  viability, T/C: 83.8%
[6]
  viability, T/C: 69.5%
[7]
  viability, T/C: 60.2%
[8]
  viability, T/C: 51.6%
[9]
  viability, T/C: 58.8%
[10]
  viability, T/C: 71.2%
[11]
  viability, T/C: 61.7%
[12]
  viability, T/C: 64.1%
[13]
  viability, T/C: 72.3%
[14]
  viability, T/C: 66.3%
[15]
  viability, T/C: 61.5%
[16]
  viability, T/C: 71.1%
[17]
  viability, T/C: 66.4%
[18]
  viability, T/C: 61.4%
[19]
  viability, T/C: 73.8%
[20]
  viability, T/C: 75.2%
[21]
  viability, T/C: 66.7%
[22]
  viability, T/C: 71.8%
[23]
  viability, T/C: 64.2%
[24]
  viability, T/C: 0.24%
[25]
  viability, T/C: 78.7%
[26]
  viability, T/C: 81.1%
[27]
  viability, T/C: 82.3%
[28]
  viability, T/C: 79%
[29]
  viability, T/C: 6.56%
[30]
  viability, T/C: 1.03%

Reference: PubChem BioAssay AID1963856 (Molecular Pharmacology Branch, DTP, NCI, 2024)
